Data from US20020173511A1, “Serotonergic compositions and methods for treatment of mild cognitive impairment” (priority 2000, published 2002).

Legend:
[1] = tested on: APPs levels in the cerebrospinal fluid; test: Western blot of secreted APPs in CSF after i.p. injection; assay type: in vivo, guinea pig; details: for APPs levels in the cerebrospinal fluid relative to saline-injected control: CSF one hour after injection, p<0.05; for Inhibition of the stimulatory effect of dexnorfenfluramine (1 mg/kg) on APPs in CSF: ritanserin 1 mg/kg or ketanserin 2 mg/kg, CSF one hour after injections
Excerpt: (§1) Guinea pigs are acclimatized to animal housing conditions for at least 70 days before receiving drug treatments or CSF withdrawal. CSF is withdrawn from the cisternae magna. Briefly, the dorsal cervical area and the occipital area of the skull is shaved and cleansed with alcohol after anesthesizing the guinea pigs with ketamine. A 33-gauge needle is used to penetrate the skin, the atlanto-occipital membrane and the dura mater in the region between the anterior of the first vertebra, and posterior of the cerebellum and the occipital protuberance. Upon penetration of the cistemae magna, a slight resistance in advancing the needle is felt; CSF is withdrawn via a PE10 polyethylene tubing attached to the needle at one end, and to a 20 ml syringe at the other. No more than 200 μL of CSF is withdrawn from each guinea pig per session or within a 24h interval. Occasionally, blood is present in the CSF; these samples are discarded and not used for analysis. The entire procedure for CSF withdrawal is completed within 5 minutes.
[…] Sterile normal saline is given control guinea pigs. To determine the time-course of APPs secretion, CSF is withdrawn at 1, 2, 4 or 8h after i.p. injections of either 1 mg/kg dexnorfenfluramine or saline. To determine the effect of chronic dexnorfenfluramine administration on secreted and brain APP levels, guinea pigs are injected with 2 mg/kg dexnorfenfluramine for 10 consecutive days. Withdrawal of CSF is performed 2h after dexnorfenfluramine on the tenth day, after which the guinea pigs are sacrificed and brains removed for analysis. Each guinea pig is repeatedly and randomly assigned on different days for either dose-response, for time-course, and for dexnorfenfluramine-5HT antagonist studies of APPs or Aβ secretion.
CSF (1-200 μL) is used for Western blot analysis of secreted APPs. For analysis of APP holoprotein, brain tissue from the cortex and hippocampus are collected in Eppendorf tubes and sonicated in 50 μL lysis buffer (60 mM Tris-HCl, 4%SDS, 20% glycerol, 1 mM dithiotreitol). The samples are boiled for 10 min to inhibit protease activity. The total amount of protein in each sample is measured by the bicinchoninic acid (Sigma) assay. Prior to gel electrophoresis, 1 μL of 5% bromphenol blue solution is added to each sample.
The amount of CSF or cell protein loaded for sodium dodecyl sulfate-polyacrylamide gel electrophoresis (10-20% SDS PAGE; Bio-Rad) is normalized for the amount of protein per sample. Proteins (equivalent to ˜100 μg cell protein/lane) are separated by electrophoresis, electroblotted onto polyvinylidene difluoride membranes (Immobilon-P, Millipore) and blocked in Tris-buffered saline with 0.15% Tween 20 (TBST) containing 5% powdered milk for 30 min. After 2×10 min rinses in TBST, the membranes are incubated in TBST containing an appropriate antibody. Monoclonal antibody 22C11 (from Boehringer-Mannheim) and APP-KPI (from Chemicon) were used to detect the N-terminus and KPI-domain of APP respectively; an antibody against glial fibrillary acidic […] (GFAP) is obtained from Chemicon.
After an overnight incubation, membranes are rinsed in TBST before being treated for lh with a peroxidase-linked secondary antibody. After several rinses in TBST, protein bands are visualized on Kodak X-AR films by an enhanced chemiluminescence method (Amersham). Optical densities of the protein bands are quantitated by laser scanning densitometry (LKB, Bromma, Sweden), and normalized to the densities of those bands generated under control conditions.
Data Analysis—Measurements of cellular and secreted proteins are normalized against those of control groups prepared in parallel and loaded onto the same blot. Analyses of variance (ANOVA) and t-tests for repeated measures are used to evaluate differences between groups (significance level, p=0.05), using drug treatments as the independent variable. Data are presented as means±SE, n=number of independent experiments.

[2] = tested on: Aβ1-40 in the cerebrospinal fluid; test: Aβ40 ELISA of CSF after i.p. injection; assay type: in vivo, guinea pig
Excerpt: as §1, with “minutes. […]” for “minutes.”
(§2) Measurements of soluble Aβ1-40 or Aβ1-42 in the CSF are quantified using the Aβ40 or Aβ42 enzyme-linked immunosorbent assay (ELISA) kit (QBC, Hopkinton, Mass.) using the procedures recommended by the manufacturer. […]

[3] = tested on: Aβ1-42 in the cerebrospinal fluid; test: Aβ42 ELISA of CSF after i.p. injection; assay type: in vivo, guinea pig
Excerpt: as §1, with “minutes. […]” for “minutes.”
as §2

Brain APP holoprotein = test: Western blot of brain APP holoprotein after chronic administration; assay type: in vivo, guinea pig; details: 10 consecutive days i.p., 1 mg/kg, p>0.05
[4] = tested on: GFAP-immunoreactive cultured astrocytes; test: APP overexpression in cultured astrocytes; assay type: cell-based, rat
Experimental: Astrocytes are isolated from cortices from postnatal rats by methods standard in the art. In brief, dissected cortices are dissociated by trypsinization and trituration through a flamepolished Pasteur pipette. Cells are plated onto poly-L-lysine coated 35- or 100 mm culture dishes at densities of about 10-25 cells/mm^2. The initial culture media, minimal essential medium (MEM, Gibco) containing 10% horse serum (BioWhittaker), are aspirated after 2-5 h after plating to remove unattached cells and debris, and replaced with MEM containing 7.5% fetal bovine serum (FBS, BioWhittaker). Half the media is replaced with MEM/7.5% FBS twice weekly. Cells are kept at 37° C. in a humidified 5% CO2/95% air incubator. Media are changed twice weekly. […]
The amount of media or cell protein loaded for sodium dodecyl sulfate-polyacrylamide gel electrophoresis (10-20% SDS PAGE; Bio-Rad) is normalized for the amount of protein per sample. […] Monoclonal antibodies 22C11 and GFAP (both from Boehringer Mannheim) are used to detect the N-terminus of APP and glial fibrillary acidic protein respectively; antisera R37 and R98 (gifts of Dr. F. Kametani, Tokyo Institute of Psychiatry) are used to detected the C-terminus and KPI motifs of APP respectively; antiserum C8 (gift of Dr. D. Selkoe, Women's Hospital, Harvard Medical School, Cambridge, Mass.) is used to detect the C-terminus of APP. […]

[5] = 10 consecutive days i.p., 1 mg/kg
[6] = 0.5, 1, 2 or 4 mg/kg, single injection, p>0.05

## CC(N)Cc1cccc(C(F)(F)F)c1 (single isomer, unassigned; (+)) [dexnorfenfluramine, (+)2-amino-1-(3-trifluoromethylphenyl) propane]
[1]; 0.5 mg/kg i.p.
  APPs levels in the cerebrospinal fluid relative to saline-injected control: 1.25 fold
[1]; 1 mg/kg i.p.
  APPs levels in the cerebrospinal fluid relative to saline-injected control: 1.45 fold
[1]; 1 mg/kg, 1h after injection
  APPs levels in the CSF relative to control group: 1.5 fold
[1]; 1 mg/kg, 2h after injection
  APPs levels in the CSF relative to control group: 2.0 fold
[1]; 1 mg/kg, 4h after injection
  APPs levels in the CSF relative to control group: 1.3 fold
[1]; 1 mg/kg, 8h after injection
  APPs levels in the CSF relative to control group: 1.5 fold
[1]; 2 mg/kg i.p.
  APPs levels in the cerebrospinal fluid relative to saline-injected control: 1.6 fold
[1]; 4 mg/kg i.p.
  APPs levels in the cerebrospinal fluid relative to saline-injected control: 1.4 fold
[1]; [5]
  Increase of APPs levels in CSF relative to control: 1.6 fold
[2]; [6]
  Effect on levels of Aβ1-40 in the cerebrospinal fluid relative to control: no significant effect
[2]; [5]
  Aβ1-40 levels in CSF relative to control: decreased
[3]; [6]
  Effect on levels of Aβ1-42 in the cerebrospinal fluid relative to control: no significant effect
[3]; [5]
  Aβ1-42 levels in CSF relative to control: decreased
Brain APP holoprotein
  Brain APP holoprotein levels: not altered
[4]
  Effect on APP overexpression in cultured astrocytes: can inhibit APP overexpression

## O=C(c1ccc(F)cc1)C1CCN(CCn2c(=O)[nH]c3ccccc3c2=O)CC1 [ketanserin]
[1]
  Inhibition of the stimulatory effect of dexnorfenfluramine (1 mg/kg) on APPs in CSF: completely inhibited

## Cc1nc2sccn2c(=O)c1CCN1CCC(=C(c2ccc(F)cc2)c2ccc(F)cc2)CC1 [ritanserin]
[1]
  Inhibition of the stimulatory effect of dexnorfenfluramine (1 mg/kg) on APPs in CSF: completely inhibited
